Experimental data: patent US20250374919A1, “AQUEOUS SUSPENSION AGROCHEMICAL COMPOSITION CONTAINING NATURAL RUBBER” (SUMITOMO CHEMICAL COMPANY, LIMITED, priority 2022, published 2025)

Assay: Water solubility of agrochemical active ingredient at 20° C.
Format: physicochemical

Compound	water solubility at 20° C. [ppm]
Cc1nnc(Cl)c(-c2c(F)cccc2F)c1-c1ccccc1 [Pyridachlometyl]	0.8
Inpyrfluxam	16.4
